As usually defined, the melting point is the temperature of the solid-liquid transition. `c1cc(-c2cnn3cc(-c4ccc(OCCN5CCOCC5)cc4)cnc23)cs1` [Example 4, 3-(3-thienyl)-6-(4-(2-(4-morpholinyl)ethoxy)phenyl) pyrazolo(1,5-A)pyrimidine] registered a melting point of 149 to 151 °C.
